Experimental data as given in the supplement of paper PMC12076712.

Assays:
AKT1 = AKT1 (UniProt P31749); assay: pIC50, kinobeads binding competition
Procedure, shortened: (§1)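 Either living Jurkat cells (60 min at 37 °C, then lysis) or lysates (60 min at 4 °C) were treated with nine compound concentrations from a top of 30 μM, in 1:4 steps for cells and 1:5 steps for lysates. The lysates were from Jurkat cells or a 1:1:1:1 mix of HEK293, K-562, HepG2 and placenta. Kinobeads-bound proteins were digested and quantified by TMT10 LC-MS/MS. pIC50 was calculated by logistic dose-response fitting (R drc package) of fold changes relative to vehicle, in biological duplicates.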

BRSK1 = molecular target: T1, BRSK1 (UniProt Q8TDC3); assay: pIC50, kinobeads binding competition
T1 sequence (whole entry): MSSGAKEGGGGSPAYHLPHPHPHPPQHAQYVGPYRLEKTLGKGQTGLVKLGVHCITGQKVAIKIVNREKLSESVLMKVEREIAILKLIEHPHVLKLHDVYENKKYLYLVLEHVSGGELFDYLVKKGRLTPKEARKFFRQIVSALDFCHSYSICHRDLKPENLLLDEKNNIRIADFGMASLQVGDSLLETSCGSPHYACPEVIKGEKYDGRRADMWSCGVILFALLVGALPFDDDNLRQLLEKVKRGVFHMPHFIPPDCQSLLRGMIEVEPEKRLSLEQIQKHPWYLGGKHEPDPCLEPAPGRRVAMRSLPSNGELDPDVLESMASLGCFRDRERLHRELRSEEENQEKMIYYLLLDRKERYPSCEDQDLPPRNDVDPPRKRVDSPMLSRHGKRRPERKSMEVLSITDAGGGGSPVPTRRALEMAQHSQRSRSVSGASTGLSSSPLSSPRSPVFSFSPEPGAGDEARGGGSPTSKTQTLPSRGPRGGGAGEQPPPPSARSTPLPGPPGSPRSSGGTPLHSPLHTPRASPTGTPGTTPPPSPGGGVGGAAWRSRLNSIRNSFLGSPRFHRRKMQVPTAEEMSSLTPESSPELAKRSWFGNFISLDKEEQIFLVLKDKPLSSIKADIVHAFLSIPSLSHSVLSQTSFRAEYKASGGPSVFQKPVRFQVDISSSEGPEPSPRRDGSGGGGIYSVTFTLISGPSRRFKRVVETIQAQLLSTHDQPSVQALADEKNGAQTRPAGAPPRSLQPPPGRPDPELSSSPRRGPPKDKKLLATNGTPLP
Procedure, shortened: as §1

PIK3R4 = PIK3R4 (UniProt Q99570); assay: pIC50, kinobeads binding competition; details: cell material: Jurkat cells
Procedure, shortened: as §1

UniProt O00506 = assay: pIC50, kinobeads binding competition
Chain of UniProt O00506 (O00506 whole entry, looked up): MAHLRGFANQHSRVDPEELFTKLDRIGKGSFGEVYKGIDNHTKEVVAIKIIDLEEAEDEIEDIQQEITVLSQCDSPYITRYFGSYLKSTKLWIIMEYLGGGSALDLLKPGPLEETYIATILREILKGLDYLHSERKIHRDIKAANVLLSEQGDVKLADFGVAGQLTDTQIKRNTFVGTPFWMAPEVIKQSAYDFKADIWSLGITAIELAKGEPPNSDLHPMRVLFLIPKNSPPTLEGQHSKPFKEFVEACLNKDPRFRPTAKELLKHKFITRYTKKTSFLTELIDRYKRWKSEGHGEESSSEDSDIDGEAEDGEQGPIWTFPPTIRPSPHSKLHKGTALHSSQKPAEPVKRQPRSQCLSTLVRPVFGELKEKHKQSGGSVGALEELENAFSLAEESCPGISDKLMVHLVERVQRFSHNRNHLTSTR
Procedure, shortened: as §1

GSTM1 = GSTM1 (UniProt P09488); assay: pIC50, competition of probe 3 labelling in live cells; details: cell material: Jurkat cells
IRAK4 = molecular target: T2, IRAK4 (UniProt Q9NWZ3); assay: as above; details: cell material: Jurkat cells
T2 sequence (whole entry): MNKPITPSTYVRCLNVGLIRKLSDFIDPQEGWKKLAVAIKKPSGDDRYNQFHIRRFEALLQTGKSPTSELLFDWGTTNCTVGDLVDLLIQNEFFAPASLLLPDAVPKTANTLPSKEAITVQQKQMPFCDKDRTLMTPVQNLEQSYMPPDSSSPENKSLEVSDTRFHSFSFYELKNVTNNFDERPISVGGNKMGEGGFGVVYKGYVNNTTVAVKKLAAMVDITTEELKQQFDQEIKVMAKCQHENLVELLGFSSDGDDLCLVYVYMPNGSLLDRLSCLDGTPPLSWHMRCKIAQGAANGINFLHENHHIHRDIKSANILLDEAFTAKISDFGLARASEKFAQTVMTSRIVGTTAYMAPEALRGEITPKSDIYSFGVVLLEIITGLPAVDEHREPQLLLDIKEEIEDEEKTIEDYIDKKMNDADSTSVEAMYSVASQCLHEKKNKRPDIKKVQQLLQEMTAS

ITK = molecular target: T3, ITK (UniProt Q08881); assay: as above; details: cell material: Jurkat cells
T3 sequence (whole entry): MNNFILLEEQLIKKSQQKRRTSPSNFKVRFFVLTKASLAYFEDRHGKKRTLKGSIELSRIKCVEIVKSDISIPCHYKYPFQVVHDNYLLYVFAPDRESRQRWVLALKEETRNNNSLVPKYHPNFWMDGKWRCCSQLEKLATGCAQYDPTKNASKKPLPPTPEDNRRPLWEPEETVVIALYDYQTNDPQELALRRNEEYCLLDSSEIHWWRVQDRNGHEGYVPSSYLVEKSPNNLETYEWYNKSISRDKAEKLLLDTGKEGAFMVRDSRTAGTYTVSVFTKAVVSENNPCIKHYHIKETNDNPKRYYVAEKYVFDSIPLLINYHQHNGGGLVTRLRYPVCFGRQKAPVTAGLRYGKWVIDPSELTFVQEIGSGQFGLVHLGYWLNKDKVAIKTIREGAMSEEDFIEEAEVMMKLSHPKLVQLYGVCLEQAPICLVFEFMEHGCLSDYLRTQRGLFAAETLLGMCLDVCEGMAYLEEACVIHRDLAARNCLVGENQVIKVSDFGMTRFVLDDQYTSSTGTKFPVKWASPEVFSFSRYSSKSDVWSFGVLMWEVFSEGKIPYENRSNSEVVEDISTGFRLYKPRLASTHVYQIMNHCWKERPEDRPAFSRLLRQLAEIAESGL

LIMK2 = LIMK2 (UniProt P53671); assay: as above; details: cell material: Jurkat cells
Chain of LIMK2 (P53671 whole entry, looked up): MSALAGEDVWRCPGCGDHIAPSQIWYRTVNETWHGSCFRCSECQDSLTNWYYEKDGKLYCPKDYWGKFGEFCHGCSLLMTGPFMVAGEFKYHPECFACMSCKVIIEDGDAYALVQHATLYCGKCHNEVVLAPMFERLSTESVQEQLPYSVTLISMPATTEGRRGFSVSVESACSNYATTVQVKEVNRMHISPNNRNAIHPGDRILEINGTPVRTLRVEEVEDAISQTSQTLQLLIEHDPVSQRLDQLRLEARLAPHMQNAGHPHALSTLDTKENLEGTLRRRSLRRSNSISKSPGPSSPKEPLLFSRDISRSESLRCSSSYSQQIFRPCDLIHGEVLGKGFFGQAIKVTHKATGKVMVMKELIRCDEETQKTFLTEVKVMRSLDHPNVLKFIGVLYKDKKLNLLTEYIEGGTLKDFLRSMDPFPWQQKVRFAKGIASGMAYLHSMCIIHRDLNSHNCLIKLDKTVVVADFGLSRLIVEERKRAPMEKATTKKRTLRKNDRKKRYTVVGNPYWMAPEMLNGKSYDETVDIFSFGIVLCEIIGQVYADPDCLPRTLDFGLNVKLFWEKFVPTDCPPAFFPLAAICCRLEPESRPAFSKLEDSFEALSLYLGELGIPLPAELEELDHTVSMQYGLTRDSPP

MAPK12 = MAPK12 (UniProt P53778); assay: as above; details: cell material: Jurkat cells
Chain of MAPK12 (P53778 whole entry): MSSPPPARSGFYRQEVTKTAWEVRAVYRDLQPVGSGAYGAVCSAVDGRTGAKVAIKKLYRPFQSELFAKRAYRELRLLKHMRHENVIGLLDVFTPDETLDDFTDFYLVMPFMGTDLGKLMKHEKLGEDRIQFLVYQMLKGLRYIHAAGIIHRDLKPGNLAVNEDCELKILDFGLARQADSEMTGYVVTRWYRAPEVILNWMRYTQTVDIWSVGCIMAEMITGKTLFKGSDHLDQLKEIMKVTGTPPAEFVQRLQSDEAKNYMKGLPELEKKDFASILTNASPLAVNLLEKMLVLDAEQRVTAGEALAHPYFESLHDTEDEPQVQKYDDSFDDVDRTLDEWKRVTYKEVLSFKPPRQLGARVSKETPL

MGLL = MGLL (UniProt Q99685); assay: as above; details: cell material: Jurkat cells
PAK2 = PAK2 (UniProt Q13177); assay: as above; details: cell material: Jurkat cells
Chain of PAK2 (Q13177 whole entry): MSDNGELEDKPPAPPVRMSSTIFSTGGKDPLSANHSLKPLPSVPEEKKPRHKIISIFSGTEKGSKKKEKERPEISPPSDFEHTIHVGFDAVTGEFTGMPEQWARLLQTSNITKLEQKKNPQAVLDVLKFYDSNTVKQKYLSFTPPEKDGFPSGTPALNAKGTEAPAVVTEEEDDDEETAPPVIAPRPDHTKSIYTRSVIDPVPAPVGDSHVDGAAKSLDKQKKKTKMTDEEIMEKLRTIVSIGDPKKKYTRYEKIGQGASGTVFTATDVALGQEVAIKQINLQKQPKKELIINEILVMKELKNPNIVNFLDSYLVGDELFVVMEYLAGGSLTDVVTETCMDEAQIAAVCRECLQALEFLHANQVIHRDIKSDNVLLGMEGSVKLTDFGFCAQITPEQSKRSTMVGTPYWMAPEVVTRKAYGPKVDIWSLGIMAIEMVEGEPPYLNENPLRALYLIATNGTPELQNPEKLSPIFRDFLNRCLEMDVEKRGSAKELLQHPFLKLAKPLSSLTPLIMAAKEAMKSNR

RPS6KA4 = RPS6KA4 (UniProt O75676); assay: as above; details: cell material: Jurkat cells
Chain of RPS6KA4 (O75676 whole entry, looked up): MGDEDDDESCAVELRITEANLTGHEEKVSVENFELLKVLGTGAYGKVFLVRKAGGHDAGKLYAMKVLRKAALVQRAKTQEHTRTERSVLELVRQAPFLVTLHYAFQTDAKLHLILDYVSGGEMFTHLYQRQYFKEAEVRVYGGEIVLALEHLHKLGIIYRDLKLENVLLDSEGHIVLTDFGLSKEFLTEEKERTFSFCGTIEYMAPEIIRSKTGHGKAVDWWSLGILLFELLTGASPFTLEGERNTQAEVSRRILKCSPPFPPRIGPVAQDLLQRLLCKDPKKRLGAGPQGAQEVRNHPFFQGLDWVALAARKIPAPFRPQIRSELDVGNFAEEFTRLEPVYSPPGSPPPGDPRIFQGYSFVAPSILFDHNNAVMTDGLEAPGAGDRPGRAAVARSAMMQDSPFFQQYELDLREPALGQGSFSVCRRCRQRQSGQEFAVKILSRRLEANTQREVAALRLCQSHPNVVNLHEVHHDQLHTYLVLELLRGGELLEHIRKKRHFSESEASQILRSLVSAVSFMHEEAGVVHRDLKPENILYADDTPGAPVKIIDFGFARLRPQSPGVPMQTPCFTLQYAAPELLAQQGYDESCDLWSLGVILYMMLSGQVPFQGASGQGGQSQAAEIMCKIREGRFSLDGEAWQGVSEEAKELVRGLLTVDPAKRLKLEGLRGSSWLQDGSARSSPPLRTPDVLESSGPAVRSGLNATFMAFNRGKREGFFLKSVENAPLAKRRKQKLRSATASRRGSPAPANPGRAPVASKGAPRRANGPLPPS

STK33 = STK33 (UniProt Q9BYT3); assay: as above; details: cell material: Jurkat cells
Chain of STK33 (Q9BYT3 whole entry, looked up): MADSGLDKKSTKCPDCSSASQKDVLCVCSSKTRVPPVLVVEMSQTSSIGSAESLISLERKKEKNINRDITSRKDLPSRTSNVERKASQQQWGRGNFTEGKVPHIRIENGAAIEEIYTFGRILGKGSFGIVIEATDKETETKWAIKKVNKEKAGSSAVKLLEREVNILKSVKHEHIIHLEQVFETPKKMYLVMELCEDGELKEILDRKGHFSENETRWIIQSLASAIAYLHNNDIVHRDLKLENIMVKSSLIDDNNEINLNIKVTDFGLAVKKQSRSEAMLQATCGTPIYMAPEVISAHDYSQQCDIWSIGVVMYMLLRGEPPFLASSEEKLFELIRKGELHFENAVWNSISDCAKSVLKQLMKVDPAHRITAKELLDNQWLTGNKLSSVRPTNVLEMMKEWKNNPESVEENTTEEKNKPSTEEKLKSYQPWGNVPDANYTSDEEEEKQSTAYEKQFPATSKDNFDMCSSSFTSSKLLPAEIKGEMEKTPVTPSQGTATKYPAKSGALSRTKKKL

STK35 = STK35 (UniProt Q8TDR2); assay: as above; details: cell material: Jurkat cells
Chain of STK35 (Q8TDR2 whole entry): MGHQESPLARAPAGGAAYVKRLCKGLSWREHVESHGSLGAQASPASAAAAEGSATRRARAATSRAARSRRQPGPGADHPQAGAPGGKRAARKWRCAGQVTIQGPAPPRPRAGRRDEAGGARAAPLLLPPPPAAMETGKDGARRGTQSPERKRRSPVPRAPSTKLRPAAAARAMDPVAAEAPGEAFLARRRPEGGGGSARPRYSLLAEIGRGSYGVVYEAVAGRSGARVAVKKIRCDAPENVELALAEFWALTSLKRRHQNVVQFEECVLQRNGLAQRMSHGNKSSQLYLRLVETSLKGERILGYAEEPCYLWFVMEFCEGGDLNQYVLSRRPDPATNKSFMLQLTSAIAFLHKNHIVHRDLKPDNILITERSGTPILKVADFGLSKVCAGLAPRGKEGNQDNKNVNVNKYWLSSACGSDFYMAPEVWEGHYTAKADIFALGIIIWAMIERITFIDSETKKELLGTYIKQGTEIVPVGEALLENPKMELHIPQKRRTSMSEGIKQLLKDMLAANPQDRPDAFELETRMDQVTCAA

UniProt O96017 = assay: as above; details: cell material: Jurkat cells
Chain of UniProt O96017 (O96017 whole entry): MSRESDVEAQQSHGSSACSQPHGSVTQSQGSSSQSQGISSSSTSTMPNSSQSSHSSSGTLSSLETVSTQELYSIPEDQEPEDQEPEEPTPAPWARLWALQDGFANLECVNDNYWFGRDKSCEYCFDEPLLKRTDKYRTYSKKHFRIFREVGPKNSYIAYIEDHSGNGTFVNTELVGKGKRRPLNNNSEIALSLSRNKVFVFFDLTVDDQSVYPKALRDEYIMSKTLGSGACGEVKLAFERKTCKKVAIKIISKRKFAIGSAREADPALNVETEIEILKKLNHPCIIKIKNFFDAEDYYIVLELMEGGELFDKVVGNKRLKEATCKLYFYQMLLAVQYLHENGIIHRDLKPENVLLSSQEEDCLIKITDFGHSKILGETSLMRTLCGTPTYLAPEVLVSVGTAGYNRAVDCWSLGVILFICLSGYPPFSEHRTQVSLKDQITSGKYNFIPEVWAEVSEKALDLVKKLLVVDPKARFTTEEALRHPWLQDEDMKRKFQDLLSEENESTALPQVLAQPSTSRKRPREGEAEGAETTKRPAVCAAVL

Chain of AKT1 (P31749 whole entry): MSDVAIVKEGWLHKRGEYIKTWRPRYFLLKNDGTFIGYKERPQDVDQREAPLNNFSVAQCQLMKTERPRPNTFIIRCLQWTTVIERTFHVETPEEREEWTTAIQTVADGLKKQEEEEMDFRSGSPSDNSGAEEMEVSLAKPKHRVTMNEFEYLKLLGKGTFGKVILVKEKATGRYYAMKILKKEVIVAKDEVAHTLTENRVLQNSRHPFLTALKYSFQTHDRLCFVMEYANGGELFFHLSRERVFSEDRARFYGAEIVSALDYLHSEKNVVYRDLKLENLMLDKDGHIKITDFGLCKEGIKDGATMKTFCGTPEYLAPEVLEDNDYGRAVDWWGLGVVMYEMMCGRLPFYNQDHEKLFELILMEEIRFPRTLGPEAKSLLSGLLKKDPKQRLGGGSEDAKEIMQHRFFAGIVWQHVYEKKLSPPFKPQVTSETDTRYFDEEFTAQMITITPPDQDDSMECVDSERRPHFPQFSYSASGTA

| Compound | pIC50 (AKT1; cell material: Jurkat cells) | pIC50 (AKT1; cell material: Jurkat lysate) | pIC50 (BRSK1; cell material: Jurkat cells) | pIC50 (BRSK1; cell material: Jurkat lysate) | pIC50 (PIK3R4) | pIC50 (UniProt O00506; cell material: Lysate mix) | pIC50 (GSTM1) | pIC50 (IRAK4) | pIC50 (ITK) | pIC50 (LIMK2) | pIC50 (MAPK12) | pIC50 (MGLL) | pIC50 (PAK2) | pIC50 (RPS6KA4) | pIC50 (STK33) | pIC50 (STK35) | pIC50 (UniProt O96017) | pIC50 (UniProt O00506; cell material: Jurkat lysate) |
| --- | --- | --- | --- | --- | --- | --- | --- | --- | --- | --- | --- | --- | --- | --- | --- | --- | --- | --- |
| O=C(NCCNC(=O)c1cc(Nc2cc(C3CC3)[nH]n2)nc(N2CCN(Cc3ccc(S(=O)(=O)F)cc3)CC2)n1)OC1CC/C=C/CCC1 (stereo not drawn) | < 4.52 | < 4.52 | 6.6 | < 4.52 | < 4.52 | < 4.52 | – | – | – | – | – | – | – | – | – | – | – | – |
| CC#CC(=O)Nc1ccc2ncnc(Nc3cccc(Br)c3)c2c1 [EKI-785] | – | – | – | – | – | – | < 4.52 | < 4.52 | < 4.52 | < 4.52 | 4.64 | < 4.52 | < 4.52 | < 4.52 | < 4.52 | < 4.52 | < 4.52 | – |
| CCc1cnn2c(NCc3ccc[n+]([O-])c3)cc(N3CCCC[C@H]3CCO)nc12 [dinaciclib] | – | – | – | – | – | – | < 4.52 | < 4.52 | < 4.52 | < 4.52 | < 4.52 | < 4.52 | < 4.52 | < 4.52 | < 4.52 | < 4.52 | < 4.52 | – |
| C#CCNC(=O)c1cc(Nc2cc(C3CC3)[nH]n2)nc(N2CCN(Cc3ccc(S(=O)(=O)F)cc3)CC2)n1 | 4.92 | – | 6.05 | < 4.52 | 4.69 | – | – | – | – | – | – | – | – | – | – | – | – | 6.59 |
